Measurements taken from patent publication US20110207726A1, “Inhibitors of Human Cathepsin L, Cathepsin B, and Cathepsin S” (The Trustees of the University of Pennsylvania, priority 2008, published 2011).
Where two headings read alike, the source gives them in different places.

Columns and labels:
[1] = target: T1, human liver cathepsin L (Homo sapiens, UniProt P07711); experiment: Cathepsin L assay, IC50 determination; assay type: biochemical
T1 construct: 8.7 ng/mL human liver cathepsin L (Calbiochem 219402); purchased Calbiochem 219402; host or cells: human liver
T1 sequence (P07711 114-288 limits assumed): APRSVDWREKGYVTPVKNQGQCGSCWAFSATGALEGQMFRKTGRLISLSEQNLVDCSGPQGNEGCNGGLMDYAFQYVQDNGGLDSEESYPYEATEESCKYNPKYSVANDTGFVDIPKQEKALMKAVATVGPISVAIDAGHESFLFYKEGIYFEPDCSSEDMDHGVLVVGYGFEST
T1 sequence (P07711 292-333 limits assumed): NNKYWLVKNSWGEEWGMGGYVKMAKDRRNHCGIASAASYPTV
How it was run: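 Enzyme (300 pM) pre-activated for 30 min in 20 mM sodium acetate, 1 mM EDTA, 5 mM cysteine, pH 5.5, then incubated 1 h at room temperature with 1 microM Z-Phe-Arg-AMC and compound. Fluorescent read-out on a microplate reader; IC50 in triplicate.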

[2] = target: T2, Human spleen cathepsin S (Homo sapiens, UniProt P25774); experiment: Cathepsin S assay, IC50 determination; assay type: biochemical
T2 construct: Human spleen cathepsin S (Calbiochem 219344, 40 ng/mL); purchased Calbiochem 219344; host or cells: human spleen
T2 sequence (P25774 115-331): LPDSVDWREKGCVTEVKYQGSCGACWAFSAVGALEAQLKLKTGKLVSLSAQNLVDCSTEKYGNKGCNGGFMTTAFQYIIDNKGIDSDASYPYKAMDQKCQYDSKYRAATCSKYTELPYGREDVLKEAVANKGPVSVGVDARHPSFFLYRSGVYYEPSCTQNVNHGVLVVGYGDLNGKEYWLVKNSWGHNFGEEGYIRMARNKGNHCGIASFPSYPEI
How it was run: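 Spleen cathepsin S (40 ng/mL) with 15 microM Z-Phe-Arg-AMC and liver cathepsin B (65 ng/mL) with 15 microM Z-Arg-Arg-AMC, in 20 mM sodium acetate, 1 mM EDTA, 5 mM cysteine, pH 5.5. AMC fluorescence release monitored; IC50 measured in triplicate.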

[3] = target: T3, human cathepsin V (Homo sapiens, UniProt O60911); experiment: Selectivity assay, cathepsin V; assay type: biochemical
T3 construct: purchased Calbiochem 219467
T3 sequence (O60911 114-334): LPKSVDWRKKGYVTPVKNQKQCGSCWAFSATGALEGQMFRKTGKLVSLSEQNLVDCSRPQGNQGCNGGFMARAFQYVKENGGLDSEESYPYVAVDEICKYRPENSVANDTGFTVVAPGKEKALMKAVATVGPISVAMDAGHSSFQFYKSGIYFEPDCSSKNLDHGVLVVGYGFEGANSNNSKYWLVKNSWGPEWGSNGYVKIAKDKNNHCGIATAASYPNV
Method: Compound No. 1 was assayed for inhibition against papain and cathepsins B, G, K, S, and V. Papain from Carica papaya (Calbiochem 5125, 11 ng/mL), human cathepsin K (Calbiochem 342001, 35 ng/mL), human spleen cathepsin S (Calbiochem 219344, 40 ng/mL), and human cathepsin V (Calbiochem 219467, 39 ng/ml) were assayed using Z-Phe-Arg-AMC substrate at 20 μM, 20 μM, 15 μM, and 1 μM, respectively. Human liver cathepsin B (Calbiochem 219362, 65 ng/mL) was assayed using 15 μM Z-Arg-Arg-AMC substrate (Bachem I-1135). Human neutrophil cathepsin G (Calbiochem 219373, 4.2 μg/mL) was assayed using 15 μM Suc-Ala-Ala-Pro-Phe-AMC substrate (Sigma S9761). All reactions were performed in 20 mM sodium acetate buffer containing 5 mM cysteine and 1 mM EDTA, pH 5.5. Reaction progress was monitored using the Envision microplate reader. IC50 values were measured in triplicate.

[4] = Stability in DMSO and cathepsin L assay buffer; assay type: physicochemical
Excerpt: Some variability in IC50 values determined for Compound (iii) prompted us to explore the stability of both Compound No. 1 and Compound (iii) in solvents relevant to the bioassay.

[5] = tested on: zebrafish; experiment: Zebrafish live organism toxicity assay; conditions: at 100 μM
[6] = target: T4, human cathepsin L (Homo sapiens, UniProt P07711); experiment: Nonlinear regression of transient kinetics (data fitting)
T4 sequence (P07711 114-288 limits assumed): as the sequence (P07711 114-288 limits assumed) above
T4 sequence (P07711 292-333 limits assumed): as the sequence (P07711 292-333 limits assumed) above

[7] = target: T4, human cathepsin L; experiment: Reversibility, preincubation/dilution assay; assay type: biochemical; design: 8.7 ng/mL human liver cathepsin L (Calbiochem 219402); purchased Calbiochem 219402; host or cells: human liver
Method: This mixture was then diluted 100-fold in a Corning 3650 96-well plate with assay buffer containing 1 μM Z-Phe-Arg-AMC to a final volume of 200 μL. A rapidly reversible inhibitor should dissociate from the enzyme to restore approximately >90% of enzymatic activity. Fluorescence intensities of the 200 μL reaction wells were monitored continuously for AMC hydrolysis on the Envision plate reader.
The mechanism of inhibition, to determine whether the compound acted as a rapidly reversible, slowly reversible, or irreversible inhibitor, was evaluated using a preincubation/dilution assay (Copeland, 2005, Evaluation of Enzyme Inhibitors in Drug Discovery: A Guide for Medicinal Chemists and Pharmacologists, J. Wiley, Hoboken, N.J.). […] After 8820 s, the rate of product formation for the 4 hour preincubated reaction was 4.7 times greater than the initial rate of product formation, showing that the inhibitor was being released from the enzyme-inhibitor complex and enzymatic activity was indeed recovering.

For `CCc1ccccc1NC(=O)CSC(=O)NNC(=O)[C@H](Cc1c[nH]c2ccccc12)NC(=O)OC(C)(C)C` [Compound No. 1], the “Selectivity Index @ 10 min” value ([1]; Cathepsin L, human liver, 10 min) was 1, the IC50 ([1]; Cathepsin L, human liver, no preincubation, 30 min, read-out: IC50 @ 30 min) was 75 ± 5 nM and the IC50 ([1]; Cathepsin L, human liver, no preincubation, 60 min, read-out: IC50 @ 60 min) was 56 ± 4 nM. For the same molecule, the IC50 ([1]; Cathepsin L, human liver, no preincubation, 90 min, read-out: IC50 @ 90 min) was 50 ± 3 nM, the “Selectivity Index @ 30 min” value ([1]; Cathepsin L, 30 min) was 1 and the “Selectivity Index @ 60 min” value ([1]; Cathepsin L, 60 min) was 1. The “Selectivity Index @ 90 min” value ([1]; Cathepsin L, 90 min) was 1, the “Selectivity Index” value ([1]; Cathepsin L, IC50 protease / IC50 cathepsin L, over 10-90 min) was 1 and the IC50 ([1]; IC50 @ 10 min, Cathepsin L, human liver, no preincubation, 10 min) was 155 ± 12 nM. It also gave an IC50 ([1]; Table 1, read-out: IC50 Cat L) of 56 nM, an IC50 ([1]; Table 17, n = 3, C, S or O at the sulfur position, read-out: Cathepsin L inhibitory activity IC50) of 56 ± 4 nM and an IC50 ([1]; no preincubation of enzyme and inhibitor, read-out: IC50 against cathepsin L (no preincubation)) of 56 nM. The “Selectivity Index @ 10 min” value ([2]; Cathepsin S vs cathepsin L, 10 min) was 7, the “Selectivity Index @ 30 min” value ([2]; Cathepsin S vs cathepsin L, 30 min) was 10 and the “Selectivity Index @ 60 min” value ([2]; Cathepsin S vs cathepsin L, 60 min) was 13. The “Selectivity Index @ 90 min” value ([2]; Cathepsin S vs cathepsin L, 90 min) was 14, the “Selectivity Index” value ([2]; Cathepsin S vs cathepsin L, over 10-90 min) was 7-14 and the IC50 ([2]; Cathepsin S, no preincubation, 30 min, read-out: IC50 @ 30 min) was 745 ± 10 nM. For the same molecule, the IC50 ([2]; Cathepsin S, no preincubation, 60 min, read-out: IC50 @ 60 min) was 724 ± 11 nM, the IC50 ([2]; Cathepsin S, no preincubation, 90 min, read-out: IC50 @ 90 min) was 721 ± 29 nM and the IC50 ([2]; IC50 @ 10 min, Cathepsin S, human spleen, no preincubation, 10 min) was 1110 ± 134 nM. For the same molecule, the IC50 ([2]; Table 1, read-out: IC50 Cat S) was 960 nM, the IC50 [3] was 1010 ± 142 nM and the “Selectivity Index @ 10 min” value ([3]; Cathepsin V vs cathepsin L, 10 min) was 7. The “Selectivity Index @ 30 min” value ([3]; Cathepsin V vs cathepsin L, 30 min) was 9, the “Selectivity Index @ 60 min” value ([3]; Cathepsin V vs cathepsin L, 60 min) was 11 and the “Selectivity Index @ 90 min” value ([3]; Cathepsin V vs cathepsin L, 90 min) was 11. For the same molecule, the “Selectivity Index” value ([3]; Cathepsin V vs cathepsin L, over 10-90 min) was 7-11, the IC50 ([3]; Cathepsin V, no preincubation, 30 min, read-out: IC50 @ 30 min) was 688 ± 39 nM and the IC50 ([3]; Cathepsin V, no preincubation, 60 min, read-out: IC50 @ 60 min) was 618 ± 35 nM. For the same molecule, the IC50 ([3]; Cathepsin V, no preincubation, 90 min, read-out: IC50 @ 90 min) was 576 ± 24 nM, the “stability in DMSO” value ([4]; DMSO, room temperature) was “completely stable” and the “stability in cathepsin L assay buffer” value ([4]; NaOAc (20 mM), pH 5.5, EDTA (1 mM), cysteine (5 mM)) was “completely stable”. The toxicity to zebrafish [5] was “lack of toxicity”, the Ki [6] was 0.89 nM and the koff [6] was 2.2e-05 s⁻¹. For the same molecule, the kon [6] was 24000 M⁻¹ s⁻¹, the “enzymatic activity returned after 100-fold dilution” value ([7]; 1 hour preincubation at 75 nM, 6000 s into the reaction) was “approximately 11%” and the “rate of product formation relative to initial rate” value ([7]; 4 hour preincubated reaction, after 8820 s) was 4.7 times. For the same molecule, the “reaction inhibited immediately after addition of substrate” value ([7]; 4 hr preincubated enzyme-inhibitor) was 99.8% and the “mechanism of inhibition (reversibility)” value ([7]; preincubation/dilution assay) was “very slowly reversible inhibitor”.
